According to PubChem BioAssay (NCI):
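Growth conditions: 96-well plates. Treatment: test compound, 48 hours, 5 concentrations. Analysis: linear interpolation between bracketing concentrations; unreached endpoints set to highest concentration. TGI is the concentration that stops growth completely.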

Key:
Test in all cases: DTP human tumour cell line panel, 48 h
UACC-62 melanoma = system: UACC-62 melanoma
LOX IMVI melanoma = system: LOX IMVI melanoma
EKVX NSCLC = system: EKVX NSCLC
SF-539 CNS = system: SF-539 CNS
SK-MEL-5 melanoma = system: SK-MEL-5 melanoma
KM20L2 colon = system: KM20L2 colon
SN12C renal = system: SN12C renal
NCI-H522 lung = system: NCI-H522 lung
HT29 colon = system: HT29 colon
SF-268 CNS = system: SF-268 CNS
SR leukemia = system: SR leukemia
IGROV1 ovarian = system: IGROV1 ovarian
CCRF-CEM leukemia = system: CCRF-CEM leukemia
SW-620 colon = system: SW-620 colon
ACHN renal = system: ACHN renal
SNB-19 CNS = system: SNB-19 CNS
M14 melanoma = system: M14 melanoma
SNB-78 CNS = system: SNB-78 CNS
RXF 393 renal = system: RXF 393 renal
SK-OV-3 ovarian = system: SK-OV-3 ovarian
U251 CNS = system: U251 CNS
OVCAR-3 ovarian = system: OVCAR-3 ovarian
HCC-2998 colon = system: HCC-2998 colon
SNB-75 CNS = system: SNB-75 CNS
NCI-H23 lung = system: NCI-H23 lung
TK-10 renal = system: TK-10 renal
OVCAR-4 ovarian = system: OVCAR-4 ovarian
786-0 renal = system: 786-0 renal
OVCAR-8 ovarian = system: OVCAR-8 ovarian
CAKI-1 renal = system: CAKI-1 renal
LXFL 529 NSCLC = system: LXFL 529 NSCLC
OVCAR-5 ovarian = system: OVCAR-5 ovarian
DLD-1 colon = system: DLD-1 colon
HCT-116 colon = system: HCT-116 colon
MALME-3M melanoma = system: MALME-3M melanoma
M19-MEL melanoma = system: M19-MEL melanoma
UO-31 renal = system: UO-31 renal
HOP-92 NSCLC = system: HOP-92 NSCLC
COLO 205 colon = system: COLO 205 colon
HOP-62 NSCLC = system: HOP-62 NSCLC
K-562 leukemia = system: K-562 leukemia
DMS 273 small cell lung = system: DMS 273 small cell lung
SK-MEL-28 melanoma = system: SK-MEL-28 melanoma
KM12 colon = system: KM12 colon
XF 498 CNS = system: XF 498 CNS
A549 NSCLC = system: A549 NSCLC
NCI-H460 lung = system: NCI-H460 lung
DMS 114 small cell lung = system: DMS 114 small cell lung
NCI-H226 lung = system: NCI-H226 lung
SF-295 CNS = system: SF-295 CNS
UACC-257 melanoma = system: UACC-257 melanoma
MOLT-4 leukemia = system: MOLT-4 leukemia
MDA-MB-435 = system: MDA-MB-435
NCI/ADR-RES ovarian = system: NCI/ADR-RES ovarian
A498 renal = system: A498 renal
DU-145 prostate = system: DU-145 prostate
HCT-15 colon = system: HCT-15 colon
SK-MEL-2 melanoma = system: SK-MEL-2 melanoma
PC-3 prostate = system: PC-3 prostate
RPMI-8226 leukemia = system: RPMI-8226 leukemia
MDA-MB-231 breast = system: MDA-MB-231 breast
T-47D breast = system: T-47D breast
MCF7 breast = system: MCF7 breast
HL-60(TB) leukemia = system: HL-60(TB) leukemia
HS 578T breast = system: HS 578T breast
BT-549 breast = system: BT-549 breast
MDA-N = system: MDA-N

SMILES: O=c1c2cccnc2ncn1CCCN1CCOCC1
- TGI (UACC-62 melanoma): > 100 µM
- TGI (LOX IMVI melanoma): > 100 µM
- TGI (EKVX NSCLC): > 100 µM
- TGI (SF-539 CNS): > 100 µM
- TGI (SK-MEL-5 melanoma): > 100 µM
- TGI (KM20L2 colon): > 100 µM
- TGI (SN12C renal): > 100 µM
- TGI (NCI-H522 lung): > 100 µM
- TGI (HT29 colon): > 100 µM
- TGI (SF-268 CNS): > 100 µM
- TGI (SR leukemia): > 100 µM
- TGI (IGROV1 ovarian): > 100 µM
- TGI (CCRF-CEM leukemia): > 100 µM
- TGI (SW-620 colon): > 100 µM
- TGI (ACHN renal): > 100 µM
- TGI (SNB-19 CNS): > 100 µM
- TGI (M14 melanoma): > 100 µM
- TGI (SNB-78 CNS): > 100 µM
- TGI (RXF 393 renal): > 100 µM
- TGI (SK-OV-3 ovarian): > 100 µM
- TGI (U251 CNS): > 100 µM
- TGI (OVCAR-3 ovarian): > 100 µM
- TGI (HCC-2998 colon): > 100 µM
- TGI (SNB-75 CNS): > 100 µM
- TGI (NCI-H23 lung): > 100 µM
- TGI (TK-10 renal): > 100 µM
- TGI (OVCAR-4 ovarian): > 100 µM
- TGI (786-0 renal): > 100 µM
- TGI (OVCAR-8 ovarian): > 100 µM
- TGI (CAKI-1 renal): > 100 µM
- TGI (LXFL 529 NSCLC): > 100 µM
- TGI (OVCAR-5 ovarian): > 100 µM
- TGI (DLD-1 colon): > 100 µM
- TGI (HCT-116 colon): > 100 µM
- TGI (MALME-3M melanoma): > 100 µM
- TGI (M19-MEL melanoma): > 100 µM
- TGI (UO-31 renal): > 100 µM
- TGI (HOP-92 NSCLC): > 100 µM
- TGI (COLO 205 colon): > 100 µM
- TGI (HOP-62 NSCLC): > 100 µM
- TGI (K-562 leukemia): > 100 µM
- TGI (DMS 273 small cell lung): > 100 µM
- TGI (SK-MEL-28 melanoma): > 100 µM
- TGI (KM12 colon): > 100 µM
- TGI (XF 498 CNS): > 100 µM
- TGI (A549 NSCLC): > 100 µM
- TGI (NCI-H460 lung): > 100 µM
- TGI (DMS 114 small cell lung): > 100 µM
- TGI (NCI-H226 lung): > 100 µM
- TGI (SF-295 CNS): > 100 µM

SMILES: CC(C)C(/C=C/c1ccccc1)=N\NC(=S)NN
- TGI (UACC-257 melanoma): > 100 µM
- TGI (UACC-62 melanoma): > 100 µM
- TGI (MOLT-4 leukemia): > 100 µM
- TGI (MDA-MB-435): > 100 µM
- TGI (LOX IMVI melanoma): > 100 µM
- TGI (EKVX NSCLC): > 100 µM
- TGI (SF-539 CNS): > 100 µM
- TGI (SK-MEL-5 melanoma): > 100 µM
- TGI (NCI/ADR-RES ovarian): > 100 µM
- TGI (SN12C renal): > 100 µM
- TGI (NCI-H522 lung): > 89.3 µM
- TGI (A498 renal): > 100 µM
- TGI (HT29 colon): > 100 µM
- TGI (SF-268 CNS): > 100 µM
- TGI (SR leukemia): > 100 µM
- TGI (IGROV1 ovarian): > 100 µM
- TGI (DU-145 prostate): > 100 µM
- TGI (CCRF-CEM leukemia): > 89.9 µM
- TGI (SW-620 colon): > 100 µM
- TGI (HCT-15 colon): > 100 µM
- TGI (ACHN renal): > 100 µM
- TGI (SK-MEL-2 melanoma): > 100 µM
- TGI (SNB-19 CNS): > 100 µM
- TGI (M14 melanoma): > 100 µM
- TGI (RXF 393 renal): > 100 µM
- TGI (SK-OV-3 ovarian): > 100 µM
- TGI (PC-3 prostate): > 100 µM
- TGI (U251 CNS): > 100 µM
- TGI (RPMI-8226 leukemia): > 100 µM
- TGI (OVCAR-3 ovarian): > 88.8 µM
- TGI (HCC-2998 colon): > 100 µM
- TGI (MDA-MB-231 breast): > 100 µM
- TGI (SNB-75 CNS): > 100 µM
- TGI (NCI-H23 lung): > 100 µM
- TGI (TK-10 renal): > 100 µM
- TGI (OVCAR-4 ovarian): > 100 µM
- TGI (786-0 renal): > 100 µM
- TGI (T-47D breast): > 100 µM
- TGI (OVCAR-8 ovarian): > 100 µM
- TGI (CAKI-1 renal): > 100 µM
- TGI (OVCAR-5 ovarian): > 100 µM
- TGI (HCT-116 colon): > 100 µM
- TGI (MALME-3M melanoma): > 100 µM
- TGI (UO-31 renal): > 100 µM
- TGI (HOP-92 NSCLC): > 100 µM
- TGI (COLO 205 colon): > 100 µM
- TGI (HOP-62 NSCLC): > 100 µM
- TGI (K-562 leukemia): > 100 µM
- TGI (SK-MEL-28 melanoma): > 100 µM
- TGI (KM12 colon): > 100 µM
- TGI (MCF7 breast): > 76.6 µM
- TGI (A549 NSCLC): > 100 µM
- TGI (HL-60(TB) leukemia): > 100 µM
- TGI (NCI-H460 lung): > 100 µM
- TGI (NCI-H226 lung): > 100 µM
- TGI (SF-295 CNS): > 100 µM
- TGI (HS 578T breast): > 100 µM
- TGI (BT-549 breast): > 100 µM
- TGI (MDA-N): > 31.6 µM
